Results: patent US8466107B2, “Fibrin-binding peptides and conjugates thereof” (Bracco Imaging SpA, priority 2006, dated 2013)
Bridge positions count the residues as written; N and C are the ends. Square brackets hold non-standard residues; d marks the D form. Peptide text beside a SMILES is read from it. * marks the point of attachment. αGalNAc = CC(=O)N[C@@H]1[C@@H](O)[C@@H](O)[C@@H](CO)O[C@@H]1*; 5FAM = O=C1OC2(c3ccc(O)cc3Oc3cc(O)ccc32)c2ccc(C(=O)*)cc21; Cha = N[C@@H](CC1CCCCC1)C(=O)O

Molecular target: DDE (fibrin-derived polypeptide) (Homo sapiens, UniProt P02671+P02675+P02679)
Assay: Direct binding fluorescence polarization (FP) assay using 5-carboxyfluorescein labeled peptides
Details: 20 nM CF5-labeled peptide, serial dilutions of DDE, anisotropy read at 485 nm; read-out: KD (μM) Direct Binding (n = 2)
Protocol: Assay of Fibrin Binding Peptides by Direct Binding Fluorescence Polarization (FP) Procedure using 5-Carboxyfluoresein Labeled Peptides
Protocol • 1. Prepare 1 mL of 40 nM solution of 5-carboxyfluorescein-labeled peptide in HEPES dilution buffer (HDB) with 0.01% Tween. • HDB (10 mM HEPES, 150 mM […], 2 mM CaCl2) • 2. Dilute the 40 nM solution to obtain 1 ml of a 20 nM solution of the test 5-carboxyfluorescein-labeled peptide. • 3. Prepare a solution of DDE at a concentration that will be approximately 5-10 fold greater than the expected KD. For the described assay an 8 μM concentration of DDE was prepared. • 4. Mix equal volumes of the DDE solution with the 40 nM peptide solution. • 5. Prepare serial dilutions of DDE in a solution consisting of the binding buffer with 0.01% Tween20 and 20 nM of the 5-carboxyfluorescein-labeled peptide. • 6. Make dilutions as shown in the following table in a Labsystems 384-well microplate and mix by repeated aspiration and dispensing of the solution into the wells. • 7. Centrifuge the plate at 2000 RPM for 5 minutes to remove air pockets in the wells. • 8. Read in Tecan Polarion Plate Reader at 485 nm to obtain the anisotropy value.
The anisotropy (in mP—millipolarization units) vs the logarithm of the concentration (micromoles/liter) of the receptor concentration is graphed. The dissociation constant is obtained at the midpoint of the curve whose extrema are Afree and Abound where Afree is the anisotropy of the free peptide and Abound is the anisotropy of the fully bound peptide. The theory, methods of operation and mathematical analysis is described in, for example, the following reference: Fluorescence Polarization Technical Resource Guide Technical Resource Guide 4th Edn. Invitrogen Corporation•501 Charmany Drive•Madison, Wis. 53719 USA. Particularly, the mathematical analysis of the data and obtaining binding constants is described in Chapter 8: Analysis of FP Binding Data pp 8-2-8-7.

Chain of DDE (fibrin-derived polypeptide) (P02671 124-216): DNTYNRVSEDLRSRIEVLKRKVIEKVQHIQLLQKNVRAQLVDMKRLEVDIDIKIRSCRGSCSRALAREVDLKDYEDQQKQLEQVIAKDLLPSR
Chain of DDE (fibrin-derived polypeptide) (P02675 164-491): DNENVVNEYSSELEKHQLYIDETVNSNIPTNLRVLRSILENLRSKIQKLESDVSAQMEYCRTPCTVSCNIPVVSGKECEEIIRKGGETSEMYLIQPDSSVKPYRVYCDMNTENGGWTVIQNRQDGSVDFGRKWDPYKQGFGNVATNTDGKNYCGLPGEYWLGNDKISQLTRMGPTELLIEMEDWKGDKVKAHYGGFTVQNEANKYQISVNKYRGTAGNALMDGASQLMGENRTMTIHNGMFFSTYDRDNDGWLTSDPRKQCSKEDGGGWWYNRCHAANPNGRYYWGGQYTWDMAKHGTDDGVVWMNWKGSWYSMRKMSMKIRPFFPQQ
Chain of DDE (fibrin-derived polypeptide) (P02679 114-432): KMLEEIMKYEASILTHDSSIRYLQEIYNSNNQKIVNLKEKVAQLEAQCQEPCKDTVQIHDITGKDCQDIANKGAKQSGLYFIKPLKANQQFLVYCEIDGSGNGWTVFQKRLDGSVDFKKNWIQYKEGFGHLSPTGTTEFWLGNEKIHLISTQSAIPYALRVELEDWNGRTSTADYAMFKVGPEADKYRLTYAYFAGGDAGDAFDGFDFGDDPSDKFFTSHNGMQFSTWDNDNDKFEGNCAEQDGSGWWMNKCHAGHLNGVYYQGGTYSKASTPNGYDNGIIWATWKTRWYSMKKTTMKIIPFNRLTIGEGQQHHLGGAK
Chain of DDE (fibrin-derived polypeptide) (P02671 36-97): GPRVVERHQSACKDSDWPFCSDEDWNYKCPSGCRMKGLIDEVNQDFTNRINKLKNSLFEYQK
Chain of DDE (fibrin-derived polypeptide) (P02675 45-152): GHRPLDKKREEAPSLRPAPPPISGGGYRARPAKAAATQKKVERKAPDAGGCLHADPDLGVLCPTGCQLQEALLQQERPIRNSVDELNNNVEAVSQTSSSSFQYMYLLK
Chain of DDE (fibrin-derived polypeptide) (P02679 27-88): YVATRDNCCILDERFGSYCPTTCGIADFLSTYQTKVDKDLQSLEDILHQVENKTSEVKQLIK

| Structure (SMILES) | Kd [µM] |
| --- | --- |
| CC(=O)N[C@@H](CCCCN)C(=O)N[C@@H](CCCCN)C(=O)NCC(=O)N[C@@H](Cc1c[nH]c2ccccc12)C(=O)N[C@@H](CCC(N)=O)C(=O)N1CCC[C@H]1C(=O)N[C@H]1CSSC[C@@H](C(=O)N[C@@H](Cc2c[nH]c3ccccc23)C(=O)N[C@@H](CC(=O)O)C(=O)N2CCC[C@H]2C(=O)NCC(=O)NCC(=O)NCC(=O)N[C@@H](CCCCNC(=O)c2ccc3c(c2)C(=O)OC32c3ccc(O)cc3Oc3cc(O)ccc32)C(N)=O)NC(=O)[C@H](Cc2ccccc2)NC(=O)[C@H]([C@@H](C)O)NC(=O)[C@H](Cc2c[nH]c3ccccc23)NC(=O)[C@H](CO)NC(=O)[C@H](CCC(=O)O)NC(=O)[C@H](Cc2c[nH]c3ccccc23)NC(=O)[C@@H]2CCCN2C1=O [Seq025-CF5] (Ac-KKGWQPCPWESWTFCWDPGGGK(5FAM)-NH2; disulfide 7-15) | 0.71 |
| C[C@@H]1NC(=O)[C@@H]2CCCN2C(=O)[C@@H](NC(=O)[C@@H]2CCCN2C(=O)[C@H](CCC(N)=O)NC(=O)[C@H](Cc2c[nH]c3ccccc23)NC(=O)[C@@H](N)CCCNC(=N)N)CSSC[C@@H](C(=O)N[C@@H](Cc2c[nH]c3ccccc23)C(=O)N[C@@H](CC(=O)O)C(=O)N2CCC[C@H]2C(=O)NCC(=O)NCC(=O)NCC(=O)N[C@@H](CCCCNC(=O)c2ccc3c(c2)C(=O)OC32c3ccc(O)cc3Oc3cc(O)ccc32)C(N)=O)NC(=O)[C@H](CC2CCCCC2)NC(=O)[C@H]([C@@H](C)O)NC(=O)[C@H](Cc2c[nH]c3ccccc23)NC(=O)[C@H](CO)NC(=O)[C@H](CCC(=O)O)NC1=O [Seq057-CF5, RWQPC*PAESWT-Cha-C*WDPGGGK(CF5)-NH2] (H-RWQPCPAESWT[Cha]CWDPGGGK(5FAM)-NH2; disulfide 5-13) | 0.03 |
| CC(=O)N[C@H]1[C@@H](OC[C@H](NC(C)=O)C(=O)N[C@@H](Cc2c[nH]c3ccccc23)C(=O)N[C@@H](CCC(N)=O)C(=O)N2CCC[C@H]2C(=O)N[C@H]2CSSC[C@@H](C(=O)N[C@@H](Cc3c[nH]c4ccccc34)C(=O)N[C@@H](CC(=O)O)C(=O)N3CCC[C@H]3C(=O)NCC(=O)NCC(=O)NCC(=O)N[C@@H](CCCCNC(=O)c3ccc4c(c3)C(=O)OC43c4ccc(O)cc4Oc4cc(O)ccc43)C(N)=O)NC(=O)[C@H](Cc3ccccc3)NC(=O)[C@H]([C@@H](C)O)NC(=O)[C@H](Cc3c[nH]c4ccccc34)NC(=O)[C@H](CO)NC(=O)[C@H](CCC(=O)O)NC(=O)[C@H](Cc3c[nH]c4ccccc34)NC(=O)[C@@H]3CCCN3C2=O)O[C@H](CO)[C@H](O)[C@@H]1O [Seq027-CF5] (Ac-S(αGalNAc)WQPCPWESWTFCWDPGGGK(5FAM)-NH2; disulfide 5-13) | 0.5 |
| CC(=O)N[C@@H](CCCNC(=N)N)C(=O)NCC(=O)N[C@@H](Cc1c[nH]c2ccccc12)C(=O)N[C@@H](CCC(N)=O)C(=O)N1CCC[C@H]1C(=O)N[C@H]1CSSC[C@@H](C(=O)N[C@@H](Cc2c[nH]c3ccccc23)C(=O)N[C@@H](CC(=O)O)C(=O)N2CCC[C@H]2C(=O)NCC(=O)NCC(=O)NCC(=O)N[C@@H](CCCCNC(=O)c2ccc3c(c2)C(=O)OC32c3ccc(O)cc3Oc3cc(O)ccc32)C(N)=O)NC(=O)[C@H](Cc2ccccc2)NC(=O)[C@H]([C@@H](C)O)NC(=O)[C@H](Cc2c[nH]c3ccccc23)NC(=O)[C@H](CO)NC(=O)[C@H](CCC(=O)O)NC(=O)[C@H](Cc2c[nH]c3ccccc23)NC(=O)[C@@H]2CCCN2C1=O [Seq052-CF5] (Ac-RGWQPCPWESWTFCWDPGGGK(5FAM)-NH2; disulfide 6-14) | 0.53 |
| CC(=O)N[C@@H](Cc1c[nH]c2ccccc12)C(=O)N[C@@H](CCC(N)=O)C(=O)N1CCC[C@H]1C(=O)N[C@H]1CSSC[C@@H](C(=O)N[C@@H](Cc2c[nH]c3ccccc23)C(=O)N[C@@H](CC(=O)O)C(=O)N2CCC[C@H]2C(=O)NCC(=O)NCC(=O)NCC(=O)N[C@@H](CCCCNC(=O)c2ccc3c(c2)C(=O)OC32c3ccc(O)cc3Oc3cc(O)ccc32)C(N)=O)NC(=O)[C@H](Cc2ccccc2)NC(=O)[C@H]([C@@H](C)O)NC(=O)[C@H](Cc2c[nH]c3ccccc23)NC(=O)[C@H](CO)NC(=O)[C@H](CCC(=O)O)NC(=O)[C@H](Cc2c[nH]c3ccccc23)NC(=O)[C@@H]2CCCN2C1=O [Seq000-CF5, reference compound] (Ac-WQPCPWESWTFCWDPGGGK(5FAM)-NH2; disulfide 4-12) | 0.39 |
| CC(=O)NCC(=O)N[C@@H](Cc1c[nH]c2ccccc12)C(=O)N[C@@H](CCC(N)=O)C(=O)N1CCC[C@H]1C(=O)N[C@H]1CSSC[C@@H](C(=O)N[C@@H](Cc2c[nH]c3ccccc23)C(=O)N[C@@H](CC(=O)O)C(=O)N2CCC[C@H]2C(=O)NCC(=O)NCC(=O)NCC(=O)N[C@@H](CCCCNC(=O)c2ccc3c(c2)C(=O)OC32c3ccc(O)cc3Oc3cc(O)ccc32)C(N)=O)NC(=O)[C@H](Cc2ccccc2)NC(=O)[C@H]([C@@H](C)O)NC(=O)[C@H](Cc2c[nH]c3ccccc23)NC(=O)[C@H](CO)NC(=O)[C@H](CCC(=O)O)NC(=O)[C@H](C)NC(=O)[C@@H]2CCCN2C1=O [Seq039-CF5] (Ac-GWQPCPAESWTFCWDPGGGK(5FAM)-NH2; disulfide 5-13) | 0.24 |
| CC(=O)N[C@@H](CCCNC(=N)N)C(=O)N[C@@H](Cc1c[nH]c2ccccc12)C(=O)N[C@@H](CCC(N)=O)C(=O)N1CCC[C@H]1C(=O)N[C@H]1CSSC[C@@H](C(=O)N[C@@H](Cc2c[nH]c3ccccc23)C(=O)N[C@@H](CC(=O)O)C(=O)N2CCC[C@H]2C(=O)NCC(=O)NCC(=O)NCC(=O)N[C@@H](CCCCNC(=O)c2ccc3c(c2)C(=O)OC32c3ccc(O)cc3Oc3cc(O)ccc32)C(N)=O)NC(=O)[C@H](Cc2ccccc2)NC(=O)[C@H]([C@@H](C)O)NC(=O)[C@H](Cc2c[nH]c3ccccc23)NC(=O)[C@H](CO)NC(=O)[C@H](CCC(=O)O)NC(=O)[C@H](Cc2c[nH]c3ccccc23)NC(=O)[C@@H]2CCCN2C1=O [Seq048-CF5] (Ac-RWQPCPWESWTFCWDPGGGK(5FAM)-NH2; disulfide 5-13) | 0.11 |
| CC(=O)N[C@@H](CCCNC(=N)N)C(=O)N[C@@H](CCCNC(=N)N)C(=O)NCC(=O)NCC(=O)N[C@@H](Cc1c[nH]c2ccccc12)C(=O)N[C@@H](CCC(N)=O)C(=O)N1CCC[C@H]1C(=O)N[C@H]1CSSC[C@@H](C(=O)N[C@@H](Cc2c[nH]c3ccccc23)C(=O)N[C@@H](CC(=O)O)C(=O)N2CCC[C@H]2C(=O)NCC(=O)NCC(=O)NCC(=O)N[C@@H](CCCCNC(=O)c2ccc3c(c2)C(=O)OC32c3ccc(O)cc3Oc3cc(O)ccc32)C(N)=O)NC(=O)[C@H](Cc2ccccc2)NC(=O)[C@H]([C@@H](C)O)NC(=O)[C@H](Cc2c[nH]c3ccccc23)NC(=O)[C@H](CO)NC(=O)[C@H](CCC(=O)O)NC(=O)[C@H](C)NC(=O)[C@@H]2CCCN2C1=O [Seq046-CF5] (Ac-RRGGWQPCPAESWTFCWDPGGGK(5FAM)-NH2; disulfide 8-16) | 0.22 |
| CC(=O)N[C@@H](CCCNC(=N)N)C(=O)NCC(=O)N[C@@H](Cc1c[nH]c2ccccc12)C(=O)N[C@@H](CCC(N)=O)C(=O)N1CCC[C@H]1C(=O)N[C@H]1CSSC[C@@H](C(=O)N[C@@H](Cc2c[nH]c3ccccc23)C(=O)N[C@@H](CC(=O)O)C(=O)N2CCC[C@H]2C(=O)NCC(=O)NCC(=O)NCC(=O)N[C@@H](CCCCNC(=O)c2ccc3c(c2)C(=O)OC32c3ccc(O)cc3Oc3cc(O)ccc32)C(N)=O)NC(=O)[C@H](CC2CCCCC2)NC(=O)[C@H]([C@@H](C)O)NC(=O)[C@H](Cc2c[nH]c3ccccc23)NC(=O)[C@H](CO)NC(=O)[C@H](CCC(=O)O)NC(=O)[C@H](C)NC(=O)[C@@H]2CCCN2C1=O [Seq053-CF5, Ac-RGWQPC*PAESWT-Cha-C*WDPGGGK(CF5)-NH2] (Ac-RGWQPCPAESWT[Cha]CWDPGGGK(5FAM)-NH2; disulfide 6-14) | 0.1 |
